For assay [1], the system named is BV-2 cell line (production of NO). Put plainly: anti-inflammatory effect: suppression of LPS-induced production of NO. The format is cell-based. Particulars: BV-2 cell line treated by LPS, read-out: IC50 (uM) B: suppressing effect on production of NO. The procedure:
After BV-2 cell line was treated by LPS to induce production of NO, the anti-inflammatory effects of many compounds were evaluated. Results were shown as IC50 (uM) (Item B of Table 3 below).
(§1) In the Table 3, A, B and C mean neuron protecting effect against Fe^+2, suppressing effect on production of NO and suppressing effect on production of beta-amyloid, respectively. The term “ND” means “Not determined.”

For assay [2], the system named is beta-amyloid (Aβ42). Briefly: suppression of beta-amyloid (Aβ42) production in CHO cells (ELISA). It counts as cell-based, Chinese hamster. Here is the method: The suppressing effects of many drug candidates on production of beta-amyloid were evaluated in CHO cell line having the increased level of beta-amyloid. Results were shown as IC50 (uM) (Item C of Table 3 below).
as §1
Cells were treated with increasing concentrations of various chemicals in Chinese hamster ovary (CHO) cells stably transfected with human wild APP695 and the PS1ΔExon9, and analyzed Aβ42 levels in culture medium by colorimetric sandwich ELISA kit (BIOSOURCE, Camarillo, Calif.). In CHO cells, IC50 of Chemical—01-08 on Aβ42 lowering effect was 20-100 uM (Table 4).
On the technique in general: In an ELISA, binding on a coated surface is turned into a signal by an enzyme label.

Assay [3] deals with cerebral cortical cell. Briefly: anti-oxidant effect: neuron protecting effect against Fe+2 (50 uM FeCl2). The format is cell-based. Particulars: cerebral cortical cell treated by 50 uM FeCl2. The procedure: After cerebral cortical cell was treated by 50 uM FeCl2 to induce oxidative stress, the anti-oxidant effects of many compounds were evaluated. Results were shown as IC50 (uM) (Item A of Table 3 below).
as §1

Assay [4] relates to mixed cortical cell cultures containing neurons and glia. Put plainly: Fe2+-induced free radical neurotoxicity in mixed cortical cell cultures (LDH release). The format is cell-based, mouse. Particulars: for IC50: 50 μM FeCl2, neuronal death 24 hr later (LDH), read-out: IC50 (50% protection against Fe^2+-induced free radical neurotoxicity). The procedure: Mouse cortical cell cultures (DIV 11-15) were exposed to 50 μM Fe^2+ or 10 mM BSO, alone or with inclusion of 5 mM Li^+. Neuronal death was analyzed 24 hr later by measuring levels of LDH released into the bathing medium, mean±SEM (n=9-12 culture wells per condition).
Mouse cortical cell cultures (DIV 11-15) were exposed to 30 μM Fe^2+ or 10 mM BSO, alone or in the presence of 1 μM 2-hydroxy TTBA, 10-100 μM vitamin E, or 5 mM Li^+.
For mixed neuron-glia culture, mouse cerebral cortices were removed from brains of the 11-15 day-old-fetal mice (E11-15), gently triturated and plated on 24 well plates (2×10^5 cells/plate) precoated with 100 μg/ml poly-D-lysine and 4 pg/ml laminin. Cultures were maintained at 37° C. in a humidified 5% CO2 atmosphere.
After 7-8 days in vitro (DIV 7-8), 10 μM cytosine arabinofuranoside (Ara-C) was included to halt overgrowth of glia. The drug treatment was carried on DIV 11-15 cortical cell culture.
Oxidative stress was induced by exposing mixed cortical cell cultures containing neurons and glia (DIV 11-15) to 50 μM FeCl2, a hydroxyl radical-producing transition metal via a Fenton reaction, or 10 mM DL-buthionine-[S,R]-sulfoximine (BSO), a glutathione depleting agent.

Assay [5] concerns cortical cell cultures containing neurons and glia. Put plainly: cyclosporine A or calyculin A-induced neuronal cell apoptosis in cortical cell cultures. It counts as cell-based, mouse. Particulars: 20 μM cyclosporine A, 24 hr, 100 μM Vitamin E, 1 μM 2-hydroxy-TTBA, 1 μM 2-hydroxy-TPEA. Here is the method: Mouse cortical cell cultures (DIV 10-12) were exposed to 20 μM cyclosporine A or 10 nM calculin A, alone or with inclusion of 0.3-30 mM Li. Neuronal death was analyzed 24-28 hr later by measuring levels of LDH released into the bathing medium, mean±SEM (n=9-12 culture wells per condition).
Mouse cortical cell cultures (DIV 10-12) were exposed to 20 μM cyclosporine A, alone or with 100 μM Vitamin E, 1 μM 2-hydroxy-TTBA, or 1 μM 2-hydroxy-TPEA. Neuronal death was analyzed 24 hr later by measuring levels of LDH released into the bathing medium, mean±SEM (n=9-12 culture wells per condition).
Cortical cell cultures containing neurons and glia at 10-12 days in vitro (DIV 10-12) were exposed to 20 μM cyclosporine A (CsA) or 10 nM caliculin A (cal A). Neurons underwent widespread apoptosis 24 hr later as previously reported (McDonald et al., 1996; Ko et al., 2000). […] This implies that Li^+ and the neuroprotective drugs (vitamin E, trolox, BAS, CBAS, FBAS, TBAS, PBAS, MBAS, NPAA, NPPAA, 2-Hydroxy-TTBA, and 2-Hydroxy-TPEA) selectively prevent neuronal cell apoptosis and free radical-mediated necrosis, respectively.

Where [6] appears, read: CHO cell line having the increased level of beta-amyloid.
Where [7] appears, read: Cricetulus griseus, CHO cell line having the increased level of beta-amyloid, read-out: IC50 (uM) C: suppressing effect on production of beta-amyloid.
Where [8] appears, read: Cricetulus griseus, CHO cells stably transfected with human wild APP695 and PS1ΔExon9, culture medium, ELISA, read-out: Aβ42 lowering effect (IC50).
[9] abbreviates: CHO cell line having the increased level of beta-amyloid, read-out: IC50 (uM) C: suppressing effect on production of beta-amyloid.

What is called IC50 is the concentration that gives 50% inhibition.

Where two headings read alike, the source gives them in different places.

As for `Cc1ccccc1CCNc1ccc(O)c(C(=O)O)c1` [Compound 25], the IC50 in assay [1] (Mus musculus) was determined as 18.6 µM; in assay [3] (Neuron), 0.07 µM. Also, the “IC50 (uM) C: suppressing effect on production of beta-amyloid” value (“IC50 (uM) C: suppressing effect” for short) in assay [2] (setting [6]) is recorded as “No”.
As to `O=C(O)c1cc(NCc2ccc(Cl)cc2)ccc1O` [CBAS], the IC50 in assay [4] amounted to 200 nM.
As for `O=C(O)c1cc(NCCCc2ccc(F)c(F)c2)ccc1O` [Compound 35], the figures for the IC50 in assay [1] (Mus musculus), in assay [2] (setting [7]) and in assay [3] (Neuron) were 67.5 µM, more than 100 µM and 0.035 µM, respectively.
With `O=C(O)c1cc(NCc2c(F)c(F)c(F)c(F)c2F)ccc1O` [PBAS, 5-(pentafluoro-benzyl)aminosalicylic acid], the IC50 in assay [4] worked out at 100 nM.
Take `O=C(O)c1cc(NCCc2ccc(Cl)cc2Cl)ccc1O` [Compound 24]: the IC50 stood at 40.8 µM in assay [1] (Mus musculus), 29.2 µM in assay [2] (setting [7]) and 0.031 µM in assay [3] (Neuron).
Regarding `O=C(O)c1cc(NCCCc2ccc(Cl)c(Cl)c2)ccc1O` [Compound 43], the IC50 was determined as 51.8 µM in assay [1] (Mus musculus), 111 µM in assay [2] (setting [7]) and 0.04 µM in assay [3] (Neuron).
As to `COc1ccc(CNc2ccc(O)c(C(=O)O)c2)cc1` [MBAS, 5-(4-methoxybenzyl)aminosalicylic acid], the IC50 in assay [4] (Mus musculus, Neuron) is 1420 nM.
With `Cc1cccc(CCNc2ccc(O)c(C(=O)O)c2)c1` [Compound 30], the figures for the concentration for half-maximal inhibition (IC50) in assay [1] (Mus musculus) and in assay [3] (Neuron) were 23.6 µM and 0.39 µM, respectively. Moreover, in assay [2] (setting [6]), the “IC50 (uM) C: suppressing effect” value is reported as “No”.
Take `O=C(O)c1cc(NCCc2ccc(F)c(F)c2)ccc1O` [Compound 21]: the IC50 turned out to be 23.7 µM in assay [1] (Mus musculus), 68 µM in assay [2] (setting [7]) and 0.32 µM in assay [3] (Neuron).
In the case of `O=C(O)c1cc(NCc2ccc(F)cc2)ccc1O` [FBAS], the half-maximal inhibitory concentration (IC50) in assay [4] worked out at 300 nM.
As for `O=C(O)c1cc(NCCc2ccc(F)c(F)c2)ccc1O` [chemical 21, 5-[2-(3,4-Difluoro-phenyl)-ethylamino]-2-hydroxy-benzoic acid], the IC50 in assay [2] (setting [8]) came out at 68 µM.
Take `O=C(O)c1cc(NCCCCc2ccccc2)ccc1O` [Compound 40]: the IC50 in assay [1] (Mus musculus) is more than 100 µM; in assay [3] (Neuron), 0.073 µM. In assay [2] (setting [6]), the “IC50 (uM) C: suppressing effect” value is given as “No”.
Take `O=C(O)c1cc(NCCc2ccc(C(F)(F)F)cc2F)ccc1O` [Compound 36]: the IC50 was 99.8 µM in assay [1] (Mus musculus), more than 100 µM in assay [2] (setting [7]) and 0.06 µM in assay [3] (Neuron).
Consider `O=C(O)c1cc(NCCCc2ccc([N+](=O)[O-])cc2)ccc1O` [NPPAA, 5-[3-(4-nitrophenyl)-n-propyl]aminosalicylic acid], for which the IC50 in assay [4] (Mus musculus, Neuron) was found to be 200 nM.
For the compound `O=C(O)c1cc(NCCc2ccc(F)c(C(F)(F)F)c2)ccc1O` [Compound 33], the IC50 in assay [1] was 31.1 µM; in assay [2] (setting [9]), more than 100 µM; in assay [3], 0.036 µM.
Regarding `O=C(O)c1cc(NCCc2cc(C(F)(F)F)cc(C(F)(F)F)c2)ccc1O` [Compound 27], the IC50 turned out to be 6.25 µM in assay [1], 109 µM in assay [2] (setting [9]) and 0.044 µM in assay [3].
For `O=C(O)c1cc(NCCc2cc(F)cc(C(F)(F)F)c2)ccc1O` [Compound 34], the IC50 in assay [1] (Mus musculus) was found to be 98.8 µM; in assay [3] (Neuron), 0.13 µM. Also, the “IC50 (uM) C: suppressing effect” value in assay [2] (setting [6]) was “No”.
Turning to `O=C(O)c1cc(NCCCc2ccc(C(F)(F)F)cc2)ccc1O` [Compound 42], the values for the IC50 in assay [1] (Mus musculus), in assay [2] (setting [7]) and in assay [3] (Neuron) were 6.7 µM, 68.3 µM and 0.062 µM, respectively.
For `O=C(O)c1cc(NCCc2ccccc2Cl)ccc1O` [Compound 07], the IC50 came out at 60.8 µM in assay [1] (Mus musculus), 19.1 µM in assay [2] (setting [7]) and 0.11 µM in assay [3] (Neuron).
Take `O=C(O)c1cc(NCCc2ccc(C(F)(F)F)cc2)ccc1O` [Compound 01]: the IC50 came out at 24.3 µM in assay [1] (Mus musculus), 19.6 µM in assay [2] (setting [7]) and 0.099 µM in assay [3] (Neuron).
Consider `O=C(O)c1cc(NCc2ccc(C(F)(F)F)cc2)ccc1O` [TBAS], for which the IC50 in assay [4] was 310 nM.
As for `Cc1ccc(CCCNc2ccc(O)c(C(=O)O)c2)cc1` [Compound 41], the IC50 in assay [1] (Mus musculus) is 26.5 µM; in assay [3] (Neuron) it was 0.11 µM. In addition, the “IC50 (uM) C: suppressing effect” value in assay [2] (setting [6]) is listed as “No”.
Take `O=C(O)c1cc(NCCc2cc(C(F)(F)F)ccc2F)ccc1O` [Compound 38]: the figures for the IC50 in assay [1] (Mus musculus) and in assay [3] (Neuron) were 35 µM and 0.069 µM, respectively. For the same compound, the “IC50 (uM) C: suppressing effect” value in assay [2] (setting [6]) was “No”.
On to Vitamin E [reference compound], for which the “cyclosporine A-induced neuronal cell apoptosis, effect in words” value in assay [5] is reported as “do not attenuate”; in assay [5] (listed as vitamin E) it was “not attenuated”. Also, the IC50 in assay [4] was 22000 nM. Also, the “Fe^2+-induced free radical neurotoxicity, effect in words” value in assay [4] (50 μM Fe^2+, 24 hr, 2-Hydroxy-TTBA or 2-Hydroxy-TPEA at doses as low as 0.3 μM, vitamin E at higher doses, Li^+ 10 mM (legend 5 mM)) is “prevented”.
On to `O=C(O)c1cc(NCCc2ccc(OC(F)(F)F)cc2)ccc1O` [chemical 16, 2-Hydroxy-5-[2-(4-trifluoromethoxy-phenyl)-ethylamino]-benzoic acid], for which the IC50 in assay [2] (setting [8]) came to 67.5 µM.
`O=C(O)c1cc(NCCc2cccc(C(F)(F)F)c2F)ccc1O` [Compound 26]: the half-maximal inhibitory concentration (IC50) in assay [1] (Mus musculus) was 61.7 µM; in assay [2] (setting [7]), more than 100 µM; in assay [3] (Neuron), 0.13 µM.
Regarding `Cc1c(C)c2c(c(C)c1O)CCC(C)(C(=O)O)O2` (stereo not shown) [Trolox, reference compound], in assay [4] (Mus musculus, Neuron), the concentration for half-maximal inhibition (IC50) amounted to 3340 nM.
Consider `O=C(O)c1cc(NCc2ccc([N+](=O)[O-])cc2)ccc1O` [NBAS, 5-(4-nitrobenzyl)aminosalicylic acid], for which the IC50 in assay [4] (Mus musculus, Neuron) turned out to be 1900 nM.
For `O=C(O)c1cc(NCCc2ccc([N+](=O)[O-])cc2)ccc1O` [NPAA, 5-[2-(4-nitrophenyl)-ethyl]aminosalicylic acid], in assay [4] (Mus musculus, Neuron), the IC50 was 270 nM.
`O=C(O)c1cc(NCCCc2ccc(Cl)c(Cl)c2)ccc1O` [chemical 43, 5-[3-(3,4-Dichloro-phenyl)-propylamino]-2-hydroxy-benzoic acid]: the IC50 in assay [2] (setting [8]) was determined as 111 µM.
`O=C(O)c1cc(NCCc2ccc(Cl)cc2Cl)ccc1O` [chemical 24, 5-[2-(2,4-Dichloro-phenyl)-ethylamino]-2-hydroxy-benzoic acid]: the IC50 in assay [2] (setting [8]) came out at 29.2 µM.
For the compound `O=C(O)c1cc(NCCc2ccc(F)cc2F)ccc1O` [Compound 17], the IC50 in assay [1] (Mus musculus) was more than 300 µM; in assay [3] (Neuron), 0.21 µM.
